From PubChem BioAssay (NCI)
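In this assay, cells in 96-well plates receive the compound at five concentrations for 48 hours. Endpoints are linearly interpolated between the surrounding concentrations. GI50 marks 50% less growth. TGI marks complete inhibition of growth.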

How the values were obtained:
Experiment in all cases: inhibition of tumour cell growth, NCI panel, 48 h
NCI/ADR-RES ovarian = test system: NCI/ADR-RES ovarian
UACC-62 melanoma = test system: UACC-62 melanoma
OVCAR-5 ovarian = test system: OVCAR-5 ovarian
OVCAR-8 ovarian = test system: OVCAR-8 ovarian
RPMI-8226 leukemia = test system: RPMI-8226 leukemia
OVCAR-3 ovarian = test system: OVCAR-3 ovarian
TK-10 renal = test system: TK-10 renal
786-0 renal = test system: 786-0 renal
UO-31 renal = test system: UO-31 renal
SF-539 CNS = test system: SF-539 CNS
K-562 leukemia = test system: K-562 leukemia
MOLT-4 leukemia = test system: MOLT-4 leukemia
NCI-H23 lung = test system: NCI-H23 lung
SR leukemia = test system: SR leukemia
SK-MEL-5 melanoma = test system: SK-MEL-5 melanoma
PC-3 prostate = test system: PC-3 prostate
SN12C renal = test system: SN12C renal
M14 melanoma = test system: M14 melanoma
EKVX NSCLC = test system: EKVX NSCLC
A549 NSCLC = test system: A549 NSCLC
HOP-92 NSCLC = test system: HOP-92 NSCLC
NCI-H522 lung = test system: NCI-H522 lung
SW-620 colon = test system: SW-620 colon
NCI-H226 lung = test system: NCI-H226 lung
SK-MEL-2 melanoma = test system: SK-MEL-2 melanoma
HL-60(TB) leukemia = test system: HL-60(TB) leukemia
HS 578T breast = test system: HS 578T breast
NCI-H460 lung = test system: NCI-H460 lung
SF-295 CNS = test system: SF-295 CNS
DU-145 prostate = test system: DU-145 prostate
MDA-MB-231 breast = test system: MDA-MB-231 breast
MDA-MB-435 = test system: MDA-MB-435
IGROV1 ovarian = test system: IGROV1 ovarian
BT-549 breast = test system: BT-549 breast
KM12 colon = test system: KM12 colon
UACC-257 melanoma = test system: UACC-257 melanoma
A498 renal = test system: A498 renal
CCRF-CEM leukemia = test system: CCRF-CEM leukemia
CAKI-1 renal = test system: CAKI-1 renal
ACHN renal = test system: ACHN renal
MCF7 breast = test system: MCF7 breast
SF-268 CNS = test system: SF-268 CNS
HCC-2998 colon = test system: HCC-2998 colon
HCT-15 colon = test system: HCT-15 colon

## COc1ccc(OC)c(-c2cc(-c3ccc(Cl)cc3)nn2-c2ccccc2)c1
NCI/ADR-RES ovarian
  GI50: 15.8 µM
  TGI: 60.9 µM
UACC-62 melanoma
  GI50: 11.2 µM
  TGI: 55.3 µM
OVCAR-5 ovarian
  GI50: 88.4 µM
  TGI: > 100 µM
OVCAR-8 ovarian
  GI50: 24.4 µM
  TGI: 93.9 µM
RPMI-8226 leukemia
  GI50: 3.29 µM
  TGI: 26.5 µM
OVCAR-3 ovarian
  GI50: 23.7 µM
  TGI: 46.7 µM
TK-10 renal
  GI50: 26.1 µM
  TGI: 88.2 µM
786-0 renal
  GI50: 17.3 µM
  TGI: 57.7 µM
UO-31 renal
  GI50: > 100 µM
  TGI: > 100 µM
SF-539 CNS
  GI50: 36 µM
  TGI: 95.2 µM
K-562 leukemia
  GI50: 5.89 µM
  TGI: 42.4 µM
MOLT-4 leukemia
  GI50: 8.7 µM
  TGI: > 100 µM
NCI-H23 lung
  GI50: 27.7 µM
  TGI: > 100 µM
SR leukemia
  GI50: 4.34 µM
  TGI: > 100 µM
SK-MEL-5 melanoma
  GI50: 42.2 µM
  TGI: > 100 µM
PC-3 prostate
  GI50: 24.2 µM
  TGI: > 100 µM
SN12C renal
  GI50: 23.9 µM
  TGI: 69.6 µM
M14 melanoma
  GI50: 14.8 µM
  TGI: 45.6 µM
EKVX NSCLC
  GI50: 82.8 µM
  TGI: > 100 µM
A549 NSCLC
  GI50: 65.8 µM
  TGI: > 100 µM
HOP-92 NSCLC
  GI50: 29.3 µM
  TGI: > 100 µM
NCI-H522 lung
  GI50: 12.6 µM
  TGI: > 100 µM
SW-620 colon
  GI50: 17 µM
  TGI: 78.4 µM
NCI-H226 lung
  GI50: 33 µM
  TGI: > 100 µM
SK-MEL-2 melanoma
  GI50: > 100 µM
  TGI: > 100 µM
HL-60(TB) leukemia
  GI50: 35.9 µM
  TGI: > 100 µM
HS 578T breast
  GI50: 18.5 µM
  TGI: > 100 µM
NCI-H460 lung
  GI50: 33.8 µM
  TGI: > 100 µM
SF-295 CNS
  GI50: 33.5 µM
  TGI: > 100 µM
DU-145 prostate
  GI50: 96.7 µM
  TGI: > 100 µM
MDA-MB-231 breast
  GI50: 17.8 µM
  TGI: 80 µM
MDA-MB-435
  GI50: 18.3 µM
  TGI: 46.1 µM
IGROV1 ovarian
  GI50: 59.5 µM
  TGI: > 100 µM
BT-549 breast
  GI50: 28.8 µM
  TGI: 84.4 µM
KM12 colon
  GI50: 23.1 µM
  TGI: > 100 µM
UACC-257 melanoma
  GI50: 6.45 µM
  TGI: 49.1 µM
A498 renal
  GI50: 6.57 µM
  TGI: 59.7 µM
CCRF-CEM leukemia
  GI50: 8.57 µM
  TGI: > 100 µM
CAKI-1 renal
  GI50: 24.2 µM
  TGI: 66.9 µM
ACHN renal
  GI50: 46.2 µM
  TGI: > 100 µM
MCF7 breast
  GI50: 6.89 µM
  TGI: > 100 µM
SF-268 CNS
  GI50: 18.2 µM
  TGI: 57.8 µM
HCC-2998 colon
  GI50: 26.4 µM
  TGI: 52.8 µM
HCT-15 colon
  GI50: 34.2 µM
  TGI: > 100 µM
